Square brackets hold non-standard residues; d marks the D form. Peptide text beside a SMILES is read from it.

For the experiment, the target named is Programmed cell death protein 1/Programmed cell death 1 ligand 1 (Homo sapiens) (UniProt Q15116+Q9NZQ7). Put plainly: Inhibition of PD1-Tag2/PD-L1-Tag1 (unknown origin) protein-protein interaction at 20 uM preincubated for 15 mins followed by addition of anti-Tag1-Eu3+ and anti-Tag2-XL665 measured after 3 hrs by HTRF assay relative to control. Format: protein-complex assay. The settings on record: time 195.0 min. (In TR-FRET formats the signal depends on donor and acceptor labels being close together.)
The term inhibition denotes the relative decrease from the control value, in per cent. On to `CC(C)C[C@@H]1NC(=O)[C@H](CC(=O)O)NC(=O)[C@H](CCCNC(=N)N)NC(=O)[C@H](C(C)C)NC(=O)[C@@H]2CCCN2C(=O)[C@@H](Cc2ccccc2)NC(=O)[C@H](CC(C)C)NC(=O)[C@H]([C@@H](C)O)NC(=O)[C@@H]2CCCN2C(=O)[C@@H](Cc2ccccc2)NC1=O` (cyclo(DL[dF]PTL[dF]PVR)), for which the inhibition is -7.34%.

As for `CC[C@H](C)[C@@H]1NC(=O)[C@@H]2CCCN2C(=O)[C@@H](Cc2ccccc2)NC(=O)[C@H](CC(C)C)NC(=O)[C@H](CC(=O)O)NC(=O)[C@H]([C@@H](C)O)NC(=O)[C@@H]2CCCN2C(=O)[C@@H](Cc2c[nH]c3ccccc23)NC(=O)[C@H](CC(C)C)NC(=O)[C@H](CCCNC(=N)N)NC1=O` (cyclo(DL[dF]PIRL[dW]PT)), the inhibition stood at 33.3%.

`CC(C)C[C@@H]1NC(=O)[C@H](CCCNC(=N)N)NC(=O)[C@H](C(C)C)NC(=O)[C@@H]2CCCN2C(=O)[C@@H](Cc2ccccc2)NC(=O)[C@H](C)NC(=O)[C@H](CCCNC(=N)N)NC(=O)[C@H](C)NC(=O)[C@@H]2CCCN2C(=O)[C@@H](Cc2ccccc2)NC1=O` (cyclo(ARA[dF]PVRL[dF]P)): the inhibition was found to be 43.6%.

As to `CC(C)C[C@@H]1NC(=O)[C@H](COP(=O)(O)O)NC(=O)[C@H]([C@@H](C)O)NC(=O)[C@@H]2CCCN2C(=O)[C@@H](Cc2ccccc2)NC(=O)[C@H](CC(C)C)NC(=O)[C@H](CCCNC(=N)N)NC(=O)[C@H](C(C)C)NC(=O)[C@@H]2CCCN2C(=O)[C@@H](Cc2ccccc2)NC1=O`, the inhibition is 26%.

Turning to `CC(C)C[C@@H]1NC(=O)[C@H](CCCNC(=N)N)NC(=O)[C@H](C(C)C)NC(=O)[C@@H]2CCCN2C(=O)[C@@H](Cc2ccccc2)NC(=O)[C@H](CC(C)C)NC(=O)[C@H](CCCNC(=N)N)NC(=O)[C@H](C(C)C)NC(=O)[C@@H]2CCCN2C(=O)[C@@H](C)NC1=O` (cyclo(L[dA]PVRL[dF]PVR)), the inhibition came out at 9.49%.

`CC(C)C[C@@H]1NC(=O)[C@H](CC(=O)O)NC(=O)[C@H]([C@@H](C)O)NC(=O)[C@@H]2CCCN2C(=O)[C@@H](Cc2ccccc2)NC(=O)[C@H](CC(C)C)NC(=O)[C@H](CC(=O)O)NC(=O)[C@H](C(C)C)NC(=O)[C@@H]2CCCN2C(=O)[C@@H](Cc2ccccc2)NC1=O`: the inhibition is -6.65%.

As for `CC(C)C[C@@H]1NC(=O)[C@H](CC(=O)O)NC(=O)[C@H]([C@@H](C)O)NC(=O)[C@@H]2CCCN2C(=O)[C@@H](Cc2ccccc2)NC(=O)[C@H](CC(N)=O)NC(=O)[C@H](CCCNC(=N)N)NC(=O)[C@H](C(C)C)NC(=O)[C@@H]2CCCN2C(=O)[C@@H](Cc2ccccc2)NC1=O` (cyclo(DL[dF]PVRN[dF]PT)), the inhibition came out at 17.4%.

On to `CC(C)C[C@@H]1NC(=O)[C@H](CCCNC(=N)N)NC(=O)[C@H](C(C)C)NC(=O)[C@H](CC(C)C)NC(=O)[C@@H](Cc2ccccc2)NC(=O)[C@H](C)NC(=O)[C@H](CCCNC(=N)N)NC(=O)[C@H](C(C)C)NC(=O)[C@@H]2CCCN2C(=O)[C@@H](Cc2ccccc2)NC1=O` (cyclo(A[dF]LVRL[dF]PVR)), for which the inhibition was found to be 11.2%.

For the compound `CC(C)C[C@@H]1NC(=O)[C@H](CC(=O)O)NC(=O)[C@H]([C@@H](C)O)NC(=O)[C@@H]2CCCN2C(=O)[C@@H](Cc2ccccc2)NC(=O)[C@H](CC(C)C)NC(=O)[C@H](Cc2cnc[nH]2)NC(=O)[C@H](C(C)C)NC(=O)[C@@H]2CCCN2C(=O)[C@@H](Cc2ccccc2)NC1=O` (cyclo(DL[dF]PVHL[dF]PT)), the inhibition was found to be 6.8%.

Turning to `CC(NCCCC[C@@H]1NC(=O)[C@@H](Cc2ccccc2)NC(=O)[C@H](CC(C)C)NC(=O)[C@H](CC(=O)O)NC(=O)[C@H]([C@@H](C)O)NC(=O)[C@@H]2CCCN2C(=O)[C@@H](Cc2c[nH]c3ccccc23)NC(=O)[C@H](CC(C)C)N(C)C(=O)[C@H](CCCNC(=N)N)NC(=O)[C@H](C(C)C)NC1=O)=C1C(=O)CC(C)(C)CC1=O`, the inhibition came out at 16.1%.

On to `CC(C)C[C@@H]1NC(=O)[C@H](CCCNC(=N)N)NC(=O)[C@H](C(C)C)NC(=O)[C@@H]2CCCN2C(=O)[C@@H](Cc2ccccc2)NC(=O)[C@H](C)NC(=O)[C@H](CC(C)C)NC(=O)[C@H](C(C)C)NC(=O)[C@@H]2CCCN2C(=O)[C@@H](Cc2ccccc2)NC1=O` (cyclo(A[dF]PVRL[dF]PVL)), for which the inhibition was 4.03%.

As for `CC(C)C[C@@H]1NC(=O)[C@H](CCCNC(=N)N)NC(=O)[C@H](C)NC(=O)[C@@H]2CCCN2C(=O)[C@@H](Cc2ccccc2)NC(=O)[C@H](C)NC(=O)[C@H](CCCNC(=N)N)NC(=O)[C@H](C(C)C)NC(=O)[C@@H]2CCCN2C(=O)[C@@H](Cc2ccccc2)NC1=O` (cyclo(ARL[dF]PVRA[dF]P)), the inhibition was determined as 6.3%.

`CC(C)C[C@@H]1NC(=O)[C@H](CC(=O)O)NC(=O)[C@H](C(C)C)NC(=O)[C@@H]2CCCN2C(=O)[C@@H](Cc2ccccc2)NC(=O)[C@H](C)NC(=O)[C@H](CCCNC(=N)N)NC(=O)[C@H](C)NC(=O)[C@@H]2CCCN2C(=O)[C@@H](Cc2ccccc2)NC1=O` (cyclo(ARA[dF]PVDL[dF]P)): the inhibition worked out at 33.7%.

As to `CC(C)C[C@@H]1NC(=O)[C@H](CCCNC(=N)N)NC(=O)[C@H](C(C)C)NC(=O)[C@@H]2CCCN2C(=O)[C@@H](Cc2ccccc2)NC(=O)[C@H](C)NC(=O)[C@H](CC(=O)O)NC(=O)[C@H](C(C)C)NC(=O)[C@@H]2CCCN2C(=O)[C@@H](Cc2ccccc2)NC1=O` (cyclo(A[dF]PVRL[dF]PVD)), the inhibition was found to be 21.7%.

Turning to `CCCC[C@@H]1NC(=O)[C@H](CC(=O)O)NC(=O)[C@H]([C@@H](C)O)NC(=O)[C@@H]2CCCN2C(=O)[C@@H](Cc2c[nH]c3ccccc23)NC(=O)[C@H](CC(C)C)NC(=O)[C@H](CCCNC(=N)N)NC(=O)[C@H](C(C)C)NC(=O)[C@H](CCCCNC(C)=C2C(=O)CC(C)(C)CC2=O)NC(=O)[C@@H](Cc2ccccc2)NC1=O`, the inhibition is -2.81%.

In the case of `CC(C)C[C@@H]1NC(=O)[C@H](CCCNC(=N)N)NC(=O)[C@H](C(C)C)NC(=O)[C@H](CC(=O)O)NC(=O)[C@@H]2CCCN2C(=O)[C@@H](Cc2ccccc2)NC(=O)[C@H](CC(C)C)NC(=O)[C@H]([C@@H](C)O)NC(=O)[C@@H]2CCCN2C(=O)[C@@H](Cc2ccccc2)NC1=O` (cyclo(DVRL[dF]PTL[dF]P)), the inhibition is 1.93%.

Take `CC(C)C[C@@H]1NC(=O)[C@H](CC(=O)O)NC(=O)[C@H]([C@@H](C)O)NC(=O)[C@@H]2CCCN2C(=O)[C@@H](Cc2ccccc2)NC(=O)[C@H](CC(C)C)NC(=O)[C@H](CC(N)=O)NC(=O)[C@H](C(C)C)NC(=O)[C@@H]2CCCN2C(=O)[C@@H](Cc2ccccc2)NC1=O` (cyclo(DL[dF]PVNL[dF]PT)): the inhibition is 16.6%.

Regarding `CC(C)C[C@@H]1NC(=O)[C@H](CCCNC(=N)N)NC(=O)[C@H](CC(=O)O)NC(=O)[C@H](C(C)C)NC(=O)[C@@H]2CCCN2C(=O)[C@@H](Cc2ccccc2)NC(=O)[C@H](CC(C)C)NC(=O)[C@H]([C@@H](C)O)NC(=O)[C@@H]2CCCN2C(=O)[C@@H](Cc2ccccc2)NC1=O` (cyclo(DRL[dF]PTL[dF]PV)), the inhibition was -4.8%.

Regarding `CC(C)C[C@@H]1NC(=O)[C@H](CCCNC(=N)N)NC(=O)[C@H](C(C)C)NC(=O)[C@H](C)NC(=O)[C@@H](Cc2ccccc2)NC(=O)[C@H](C)NC(=O)[C@H](CCCNC(=N)N)NC(=O)[C@H](C(C)C)NC(=O)[C@@H]2CCCN2C(=O)[C@@H](Cc2ccccc2)NC1=O` (cyclo(AVRL[dF]PVRA[dF])), the inhibition is -0.657%.
